What was measured:
[1] = molecular target: T1, GLS1 (purified recombinant human GAC) (Homo sapiens, UniProt O94925); experiment: GLS1 enzymatic activity assay (dual-coupled, Amplex UltraRed/resorufin); assay type: biochemical
T1 sequence (O94925 55-598 isoform O94925-3 limits assumed): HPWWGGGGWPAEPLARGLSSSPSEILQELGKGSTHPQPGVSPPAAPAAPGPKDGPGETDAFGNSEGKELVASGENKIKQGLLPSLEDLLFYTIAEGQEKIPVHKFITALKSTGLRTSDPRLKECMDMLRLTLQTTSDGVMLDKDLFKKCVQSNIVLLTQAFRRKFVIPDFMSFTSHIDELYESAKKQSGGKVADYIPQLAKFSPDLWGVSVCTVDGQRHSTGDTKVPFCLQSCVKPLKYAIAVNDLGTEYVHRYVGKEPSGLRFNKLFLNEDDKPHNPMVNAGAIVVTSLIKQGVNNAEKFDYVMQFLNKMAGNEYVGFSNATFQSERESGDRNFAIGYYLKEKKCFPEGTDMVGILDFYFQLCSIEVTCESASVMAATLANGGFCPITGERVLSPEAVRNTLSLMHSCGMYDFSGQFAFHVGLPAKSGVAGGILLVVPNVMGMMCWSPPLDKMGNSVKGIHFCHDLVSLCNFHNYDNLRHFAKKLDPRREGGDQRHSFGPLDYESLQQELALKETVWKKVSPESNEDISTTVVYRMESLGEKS
Outline: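 Recombinant human GAC (2 nM) preincubated with 50 mM potassium phosphate, then inhibitor (10 min each, RT); 1 mM glutamine, pH 7.4 Hepes buffer, 1% DMSO. Glutamate coupled via glutamate oxidase/HRP to resorufin (Ex 530/Em 590), kinetic or 20-min endpoint; IC50 by four-parameter logistic fit.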

A549 cells = experiment: A549 proliferation (viability) assay, Cell Titer Fluor, 72 hours; assay type: cell-based; conditions: Homo sapiens
Outline: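 Fluorescence read-out (Cell Titer Fluor, 30 min at 37 °C after reagent) after 72 h compound exposure of A549 cells; EC50 by four-parameter logistic curve fit. Cells: 1000/well, RPMI 1640 + 10% dialyzed FBS, 0.5% DMSO final.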

IC50 [1]	EC50 (A549 cells)	SMILES
100 to 500 nM	> 5000 nM	O=C(Cc1ccccc1)Nc1ccn(CCCCn2cc(C(=O)NCc3ccccn3)nn2)c(=O)c1 [Example 34, 1-{4-[2-oxo-4-(2-phenylacetamido)-1,2-dihydropyridin-1-yl]butyl}-N-(pyridin-2-ylmethyl)-1H-1,2,3-triazole-4-carboxamide]
< 100 nM	< 100 nM	CC1(C)CN(CC(=O)Nc2ccn(CCC(F)Cn3cc(C(=O)NCc4cccc(OC(F)(F)F)c4)nn3)c(=O)c2F)CCO1 (stereo not shown) [Example 294, 1-(4-{4-[2-(2,2-dimethylmorpholin-4-yl)acetamido]-3-fluoro-2-oxo-1,2-dihydropyridin-1-yl}-2-fluorobutyl)-N-{[3-(trifluoromethoxy)phenyl]methyl}-1H-1,2,3-triazole-4-carboxamide]
500 to 5000 nM	> 5000 nM	O=C(Nc1ccn(CCC(F)Cn2cc(C(=O)NCc3cc(C(F)(F)F)ccn3)nn2)c(=O)n1)NC1CCC1 (stereo not shown) [Example 496, 1-(4-{4-[(cyclobutylcarbamoyl)amino]-2-oxo-1,2-dihydropyrimidin-1-yl}-2-fluorobutyl)-N-{[4-(trifluoromethyl)pyridin-2-yl]methyl}-1H-1,2,3-triazole-4-carboxamide]
< 100 nM	< 100 nM	C[C@H](C(=O)Nc1ccn(CCC(F)Cn2cc(C(=O)NCc3cc(C(F)(F)F)ccn3)nn2)c(=O)c1F)c1ccccc1 (stereo partly drawn) [Example 343, 1-(2-fluoro-4-{3-fluoro-2-oxo-4-[(2S) 2-phenylpropanamido]-1,2-dihydropyridin-1-yl}butyl)-N-{[4-(trifluoromethyl)pyridin-2-yl]methyl}-1H-1,2,3-triazole-4-carboxamide]
< 100 nM	500 to 5000 nM	O=C(Cc1cccc(OC(F)(F)F)c1)Nc1ccc(CCCCn2ccc(NC(=O)NCc3ccccc3)nc2=O)nn1 [Example 23, N-(6-(4-(4-(3-benzylureido)-2-oxopyrimidin-1(2H)-yl)butyl)pyridazin-3-yl)-2-(3-(trifluoromethoxy)phenyl)acetamide]
< 100 nM	< 100 nM	O=C(Nc1ccn(CCC(F)Cn2cc(C(=O)NCc3cc(C(F)(F)F)ccn3)nn2)c(=O)c1F)C(=O)c1ccccc1 (stereo not shown) [Example 333, 1-{2-fluoro-4-[3-fluoro-2-oxo-4-(2-oxo-2-phenylacetamido)-1,2-dihydropyridin-1-yl]butyl}-N-{[4-(trifluoromethyl)pyridin-2-yl]methyl}-1H-1,2,3-triazole-4-carboxamide]
< 100 nM	100 to 500 nM	CCN(CC)C(=O)C(=O)Nc1ccn(CCC(F)Cn2cc(C(=O)NCc3cccc(OC(F)(F)F)c3)nn2)c(=O)c1F (stereo not shown) [Example 425, N,N-diethyl-N′-(3-fluoro-1-{3-fluoro-4-[4-({[3-(trifluoro-methoxy)phenyl]methyl}carbamoyl)-1H-1,2,3-triazol-1-yl]butyl}-2-oxo-1,2-dihydropyridin-4-yl)ethanediamide]
100 to 500 nM	> 5000 nM	CNC(=O)Nc1nnc(CCCCn2ccc(NC(=O)CC3CCCC3)c(F)c2=O)s1 [Example 132, 2-cyclopentyl-N-(3-fluoro-1-(4-(5-(3-methylureido)-1,3,4-thiadiazol-2-yl)butyl)-2-oxo-1,2-dihydropyridin-4-yl)acetamide]
< 100 nM	< 100 nM	CC(C(=O)Nc1ccn(CCC(F)Cn2cc(C(=O)NCc3cncc(C(F)(F)F)c3)nn2)c(=O)c1F)N1CCCCC1 (stereo not shown) [Example 352, 1-(2-fluoro-4-{3-fluoro-2-oxo-4-[2-(piperidin-1-yl)propanamido]-1,2-dihydropyridin-1-yl}butyl)-N-{[5-(trifluoromethyl)pyridin-3-yl]methyl}-1H-1,2,3-triazole-4-carboxamide]
100 to 500 nM	100 to 500 nM	O=C(CC1CCC1)Nc1ccn(CCC(F)Cn2cc(C(=O)NCc3ncccc3F)nn2)c(=O)c1F (stereo not shown) [Example 356, 1-{4-[4-(2-cyclobutylacetamido)-3-fluoro-2-oxo-1,2-dihydropyridin-1-yl]-2-fluorobutyl}-N-[(3-fluoropyridin-2-yl)methyl]-1H-1,2,3-triazole-4-carboxamide]
< 100 nM	< 100 nM	O=C(CN1CCCCC1)Nc1ccn(CCC(F)Cn2cc(C(=O)NCc3cccc(OC(F)(F)F)c3)nn2)c(=O)c1 (stereo not shown) [Example 269, 1-(2-fluoro-4-{2-oxo-4-[2-(piperidin-1-yl)acetamido]-1,2-dihydropyridin-1-yl}butyl)-N-{[3-(trifluoromethoxy)phenyl]methyl}-1H-1,2,3-triazole-4-carboxamide]
< 100 nM	< 100 nM	CO[C@@H](C(=O)Nc1ccn(CCC(F)Cn2cc(C(=O)NCc3cccc(OC(F)(F)F)c3)nn2)c(=O)c1)c1ccccc1 (stereo partly drawn) [Example 186, 1-(2-fluoro-4-{4-[(2R)-2-methoxy-2-phenylacetamido]-2-oxo-1,2-dihydropyridin-1-yl}butyl)-N-{[3-(trifluoromethoxy)phenyl]methyl}-1H-1,2,3-triazole-4-carboxamide]
< 100 nM	100 to 500 nM	O=C(Nc1ccn(CCCCc2nnc(C(=O)NCc3cc(C(F)(F)F)ccn3)s2)c(=O)c1F)C(=O)N1CCCCC1 [Example 466, 5-(4-{3-fluoro-2-oxo-4-[2-oxo-2-(piperidin-1-yl)acetamido]-1,2-dihydropyridin-1-yl)butyl)-N-{[4-(trifluoromethyl)pyridin-2-yl]methyl}-1,3,4-thiadiazole-2-carboxamide]
< 100 nM	< 100 nM	CC(C(=O)Nc1ccn(CCC(F)Cn2cc(C(=O)NCc3cccc(OC(F)(F)F)c3)nn2)c(=O)c1F)N1CCCCC1 (stereo not shown) [Example 337, 1-(2-fluoro-4-(3-fluoro-2-oxo-4-(2-(piperidin-1-yl)propanamido)pyridin-1(2H)-yl)butyl)-N-(3-(trifluoromethoxy)benzyl)-1H-1,2,3-triazole-4-carboxamide]
500 to 5000 nM	> 5000 nM	NC(=O)c1cn(CC(F)CCn2ccc(NC(=O)CC3CCC3)c(F)c2=O)nn1 (stereo not shown) [Example 391, 1-{4-[4-(2-cyclobutylacetamido)-3-fluoro-2-oxo-1,2-dihydropyridin-1-yl]-2-fluorobutyl}-1H-1,2,3-triazole-4-carboxamide]
< 100 nM	< 100 nM	O=C(CC1CCCC1)Nc1ccn(CCC(F)Cn2cc(C(=O)NCc3cc(Cl)ccc3F)nn2)c(=O)c1F (stereo not shown) [Example 395, N-[(5-chloro-2-fluorophenyl)methyl]-1-{4-[4-(2-cyclopentylacetamido)-3-fluoro-2-oxo-1,2-dihydropyridin-1-yl]-2-fluorobutyl}-1H-1,2,3-triazole-4-carboxamide]
500 to 5000 nM	> 5000 nM	CNC(=O)c1ccn(CCCCn2cc(C(=O)NCc3cccc(OC(F)(F)F)c3)nn2)c(=O)c1 [Example 58, N-methyl-2-oxo-1-{4-[4-({[3-(trifluoromethoxy)phenyl]methyl}carbamoyl)-1H-1,2,3-triazol-1-yl]butyl}-1,2-dihydropyridine-4-carboxamide]
500 to 5000 nM	> 5000 nM	O=C(Nc1ccn(CCCCc2nnc(C(=O)NCCO)s2)c(=O)n1)OCc1ccccc1 [Example 119, benzyl N-[1-(4-{5-[(2-hydroxyethyl)carbamoyl]-1,3,4-thiadiazol-2-yl}butyl)-2-oxo-1,2-dihydropyrimidin-4-yl]carbamate]
100 to 500 nM	500 to 5000 nM	Cc1ccc(CNC(=O)c2cn(CCCCn3ccc(NC(=O)OCc4ccccc4)cc3=O)nn2)cn1 [Example 135, benzyl N-{1-[4-(4-{[(6-methylpyridin-3-yl)methyl]carbamoyl}-1H-1,2,3-triazol-1-yl)butyl]-2-oxo-1,2-dihydropyridin-4-yl}carbamate]
< 100 nM	500 to 5000 nM	O=C(Cc1ccccc1)Nc1ccn(CCCCc2nnc(NC(=O)Cc3ccccn3)s2)c(=O)c1 [Example 1, N-(2-oxo-1-(4-(5-(2-(pyridin-2-yl)acetamido)-1,3,4-thiadiazol-2-yl)butyl)-1,2-dihydropyridin-4-yl)-2-phenylacetamide]
< 100 nM	500 to 5000 nM	O=C(Cc1ccccc1)Nc1ccn(CCCCc2nnc(NC(=O)Cc3ccccc3)s2)c(=O)n1 [Example 73, N-(2-oxo-1-{4-[5-(2-phenylacetamido)-1,3,4-thiadiazol-2-yl]butyl}-1,2-dihydropyrimidin-4-yl)-2-phenylacetamide]
< 100 nM	500 to 5000 nM	O=C(Cc1cccc(OC(F)(F)F)c1)Nc1ccc(CCCCn2ccc(NC(=O)CCO)nc2=O)nn1 [Example 117, 3-hydroxy-N-{2-oxo-1-[4-(6-{2-[3-(trifluoromethoxy)phenyl]acetamido}pyridazin-3-yl)butyl]-1,2-dihydropyrimidin-4-yl}propanamide]
< 100 nM	< 100 nM	O=C(Cc1ccccc1)Nc1ccn(CC(F)CCn2cc(C(=O)NCc3cc(OC(F)(F)F)ccc3F)nn2)c(=O)c1 (stereo not shown) [Example 13, 1-(3-fluoro-4-(2-oxo-4-(2-phenylacetamido)pyridin-1(2H)-yl)butyl)-N-(2-fluoro-5-(trifluoromethoxy)benzyl)-1H-1,2,3-triazole-4-carboxamide]

From patent US20160002204A1 (Board of Regents, The University of Texas System, priority 2014, published 2016)
